The source of these data is patent publication US20050090524A1, “Novel adamantane derivatives” (priority 2002, published 2005).

The structures appear in SMILES notation. Where a name gives a salt, the structure may show the parent alone.

The target of this assay is T1, P2X7 receptor (Homo sapiens, UniProt Q99572).
T1 construct: 200 μl of a suspension of THP-1 cells; endogenous in cells; host or cells: THP-1 cells
T1 sequence (Q99572 1-595): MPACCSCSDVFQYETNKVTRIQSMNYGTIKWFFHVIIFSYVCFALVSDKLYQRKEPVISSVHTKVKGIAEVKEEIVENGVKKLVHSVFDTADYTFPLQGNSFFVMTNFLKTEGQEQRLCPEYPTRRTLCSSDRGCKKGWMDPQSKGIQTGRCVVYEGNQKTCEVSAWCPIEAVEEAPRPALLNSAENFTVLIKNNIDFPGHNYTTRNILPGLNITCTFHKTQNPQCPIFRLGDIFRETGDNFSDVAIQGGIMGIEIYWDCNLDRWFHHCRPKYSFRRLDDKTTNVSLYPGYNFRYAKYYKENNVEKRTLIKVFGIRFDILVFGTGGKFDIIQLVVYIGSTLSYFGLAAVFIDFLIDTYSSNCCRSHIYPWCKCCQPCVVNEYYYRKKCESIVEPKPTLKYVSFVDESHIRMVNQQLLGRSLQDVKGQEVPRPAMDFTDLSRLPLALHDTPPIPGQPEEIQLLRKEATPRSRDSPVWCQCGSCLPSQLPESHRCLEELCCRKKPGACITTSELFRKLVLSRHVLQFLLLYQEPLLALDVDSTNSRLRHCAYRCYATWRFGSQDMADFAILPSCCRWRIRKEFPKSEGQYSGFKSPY
Description: P2X7 receptor antagonist test: bbATP-induced ethidium bromide fluorescence in THP-1 cells. It is filed as cell-based. As to conditions: bbATP agonist, 37° C. for one hour, negative logarithm of concentration reducing bbATP agonist activity by 50%. From the text: Certain compounds such as benzoylbenzoyl adenosine triphosphate (bbATP) are known to be agonists of the P2X7 receptor, effecting the formation of pores in the plasma membrane (Drug Development Research (1996), 37(3), p.126). Consequently, when the receptor is activated using bbATP in the presence of ethidium bromide (a fluorescent DNA probe), an increase in the fluorescence of intracellular DNA-bound ethidium bromide is observed. The increase in fluorescence can be used as a measure of P2X7 receptor activation and therefore to quantify the effect of a compound on the P2X7 receptor.
In this manner, each of the title compounds of the Examples was tested for antagonist activity at the P2X7 receptor. Thus, the test was performed in 96-well flat bottomed microtitre plates, the wells being filled with 250 μl of test solution comprising 200 μl of a suspension of THP-1 cells (2.5×10^6 cells/ml) containing 10^−4M ethidium bromide, 25 μl of a high potassium buffer solution containing 10^−5M bbATP, and 25 μl of the high potassium buffer solution containing 3×10^−5M test compound. The plate was covered with aplastics sheet and incubated at 37° C. for one hour. The plate was then read in a Perkin-Elmer fluorescent plate reader, excitation 520 nm, emission 595 nm, slit widths: Ex 15 nm, Em 20 nm. For the purposes of comparison, bbATP (a P2X7 receptor agonist) and pyridoxal 5-phosphate (a P2X7 receptor antagonist) were used separately in the test as controls. From the readings obtained, a pIC50 figure was calculated for each test compound, this figure being the negative logarithm of the concentration of test compound necessary to reduce the bbATP agonist activity by 50%.

What is called IC50 is the concentration needed to halve the response being measured. As for `O=C(NCC12CC3CC(CC(C3)C1)C2)c1c(Cl)ccc2nc(CN3CCNCC3)ccc12` [Example 170, N-(1-Adamantylmethyl)-6-chloro-2-(piperazin-1-ylmethyl)quinoline-5-carboxamide Hydrochloride], the concentration for half-maximal inhibition (IC50) is 26.3 nM.

`O=C(CC12CC3CC(CC(C3)C1)C2)Nc1c(Cl)ccc2nc(CN3CCN(CCO)CC3)ccc12` [Example 196, 2-(1-Adamantyl)-N-(6chloro-2-{[4-(2-hydroxyethyl)piperazin-1-yl]methyl}quinlolin-5-yl)acetamide] gave an IC50 of 18.6 nM.

`Cc1ccc2nc(CCNCCCO)ccc2c1NC(=O)CC12CC3CC(CC(C3)C1)C2` [Example 205, 2-(1-Adamantyl)-N-(2-{2-[(3-hydroxypropyl)amino]ethyl}-6-methylquinolin-5-yl)acetamide Dihydrochloride] had an IC50 of 17.8 nM.

`CNCCCN(C)c1ccc2c(C(=O)NCC34CC5CC(CC(C5)C3)C4)c(Cl)ccc2n1` [Example 208, N-(1-Adamantylmethyl)-6-chloro-2-{methyl[3-(methylamino)propyl]amino}quinoline-5-carboxamide] showed an IC50 of 35.5 nM.
